Reference: patent publication US10065990B2, “Cyclic peptide compound, and preparation method, pharmaceutical composition and use thereof” (HANGZHOU GUANYU BIO-MEDICAL CO., LTD, priority 2013, dated 2018)

Key:
[1] = target: T1, HDAC7 (Homo sapiens, UniProt Q8WUI4); assay: HDAC biochemical activity measurement (fluorescent substrate deacetylation);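 further: fluorogenic deacetylation assay using acetyl-lysine substrate at 20 µM, enzyme and compound incubated 30 min at 37 °C, then developer added, fluorescence read at 360/460 nm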; details: HDAC7; 37° C. 30 minutes
T1 sequence (Q8WUI4 1-952): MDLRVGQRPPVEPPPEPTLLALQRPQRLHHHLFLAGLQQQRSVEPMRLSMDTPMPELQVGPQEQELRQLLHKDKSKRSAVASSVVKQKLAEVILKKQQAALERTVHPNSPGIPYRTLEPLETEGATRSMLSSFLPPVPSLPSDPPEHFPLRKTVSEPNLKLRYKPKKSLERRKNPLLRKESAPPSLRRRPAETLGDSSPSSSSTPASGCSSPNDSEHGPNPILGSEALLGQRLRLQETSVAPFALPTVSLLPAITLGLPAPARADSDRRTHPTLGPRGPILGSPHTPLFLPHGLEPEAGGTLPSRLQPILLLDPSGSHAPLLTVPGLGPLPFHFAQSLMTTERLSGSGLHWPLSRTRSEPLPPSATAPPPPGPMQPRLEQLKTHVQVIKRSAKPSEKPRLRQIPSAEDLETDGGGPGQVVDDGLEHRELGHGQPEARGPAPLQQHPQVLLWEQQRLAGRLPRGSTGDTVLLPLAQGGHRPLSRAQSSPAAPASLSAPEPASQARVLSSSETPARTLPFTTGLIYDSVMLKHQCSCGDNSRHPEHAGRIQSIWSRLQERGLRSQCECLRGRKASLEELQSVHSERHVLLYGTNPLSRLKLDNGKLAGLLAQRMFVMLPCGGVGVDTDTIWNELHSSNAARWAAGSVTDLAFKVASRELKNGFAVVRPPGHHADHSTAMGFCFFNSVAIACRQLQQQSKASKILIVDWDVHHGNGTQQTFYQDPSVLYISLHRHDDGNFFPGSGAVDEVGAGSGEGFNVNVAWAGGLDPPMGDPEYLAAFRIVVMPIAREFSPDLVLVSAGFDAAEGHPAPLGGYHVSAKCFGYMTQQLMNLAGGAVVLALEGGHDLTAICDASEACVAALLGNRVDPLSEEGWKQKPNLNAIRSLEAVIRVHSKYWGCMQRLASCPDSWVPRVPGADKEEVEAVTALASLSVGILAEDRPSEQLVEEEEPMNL

[2] = test system: A549 (human lung cancer cells); assay: MTT cancer cell growth inhibition; assay type: cell-based; details: Homo sapiens, A549, 72 h, MTT, 72 hours incubation; read-out: GI50 A54
Source text: (§1) MTT assay principle is yellow MTT can penetrate membrane into the cell, succinic dehydrogenase of the mitochondria in living cells can make exogenous MTT reduction of insoluble in water of blue-violet acicular formazan for crystallization and deposition in the cell, crystallization can be dissolved dimethyl sulfoxide (DMSO) solution, detected its absorbance at 490 nm/570 nm wavelength by enzyme-linked immunosorbent assay, which can reflect the number of cells.
(§2) Using DMEM+10% FBS culture medium or using 1640+10% FBS culture, respectively.
(§3) a) Cells were seeded in 96-well plates with the inoculation of 1500/well, 190 μl/hole, 37° C., 5% of CO2 incubator overnight;
(§4) b) The next day each well was added 10 μl of different drugs. The final concentration of drug was 10^−5˜10^−10M, three parallel holes; 37° C., 5% CO2 culture incubator for 72 hours incubation;
(§5) c) Per well was added 20 μl 5 mg/ml of MTT, 37° C., 5% CO2 culture incubator for 4 hours incubation;
(§6) d) The supernatant was discarded. Each well was added 100 μl of DMSO and oscillation;
(§7) e) 570 nm readings. Calculate cell viability. GI50 calculation based on the results.

[3] = test system: BGC-823 (human gastric cancer cells); assay: MTT cancer cell growth inhibition; assay type: cell-based; details: Homo sapiens, BGC-823, 72 h, MTT, 72 hours incubation; read-out: GI50 BG
Source text: as §1, §2, §3, §4, §5, §6, §7

[4] = test system: Bel-7402 (human hepatoma cells); assay: MTT cancer cell growth inhibition; assay type: cell-based; details: Homo sapiens, Bel-7402, 72 h, MTT, 72 hours incubation, Bel-7402 cells; read-out: GI50 Bel-7402
Source text: as §1, §2, §3, §4, §5, §6, §7

[5] = test system: DU145 (human prostate cancer cells); assay: MTT cancer cell growth inhibition; assay type: cell-based; details: Homo sapiens, DU-145, 72 h, MTT, 72 hours incubation; read-out: GI50 Du1
Source text: as §1, §2, §3, §4, §5, §6, §7

[6] = test system: H1975 (non-small cell lung adenocarcinoma); assay: MTT cancer cell growth inhibition; assay type: cell-based; details: Homo sapiens, NCI-H1975, 72 h, MTT, 72 hours incubation, H1975 cells; read-out: GI50 H1975
Source text: as §1, §2, §3, §4, §5, §6, §7

[7] = test system: HCC827 (human non-small cell lung cancer cells); assay: MTT cancer cell growth inhibition; assay type: cell-based; details: Homo sapiens, HCC827, 72 h, MTT, 72 hours incubation, HCC827 cells; read-out: GI50 HCC827
Source text: as §1, §2, §3, §4, §5, §6, §7

[8] = test system: HT1080 (human fibrosarcoma cells); assay: MTT cancer cell growth inhibition; assay type: cell-based; details: Homo sapiens, HT-1080, 72 h, MTT, 72 hours incubation; read-out: GI50 HT1
Source text: as §1, §2, §3, §4, §5, §6, §7

[9] = test system: Hela (human cervical cancer cells); assay: MTT cancer cell growth inhibition; assay type: cell-based; details: Homo sapiens, HeLa, 72 h, MTT, 72 hours incubation; read-out: GI50 Hela
Source text: as §1, §2, §3, §4, §5, §6, §7

[10] = test system: Huh-7 (human hepatoma cells); assay: MTT cancer cell growth inhibition; assay type: cell-based; details: Homo sapiens, Huh-7, 72 h, MTT, 72 hours incubation, Huh-7 cells; read-out: GI50 Huh-7
Source text: as §1, §2, §3, §4, §5, §6, §7

[11] = test system: K562 (human leukemia cells); assay: MTT cancer cell growth inhibition; assay type: cell-based; details: Homo sapiens, K562, 72 h, MTT, 72 hours incubation, K562 cells; read-out: GI50 K562
Source text: as §1, §2, §3, §4, §5, §6, §7

[12] = test system: KBM-5 (human chronic myelogenous leukemia); assay: MTT cancer cell growth inhibition; assay type: cell-based; details: Homo sapiens, KBM5, 72 h, MTT, 72 hours incubation, KBM-5 cells; read-out: GI50 KBM-5
Source text: as §1, §2, §3, §4, §5, §6, §7

[13] = test system: KBM5-T315I (human chronic myelogenous leukemia); assay: MTT cancer cell growth inhibition; assay type: cell-based; details: Homo sapiens, 72 h, MTT, 72 hours incubation, KBM5-T315I cells; read-out: GI50 KBM5-T315I
Source text: as §1, §2, §3, §4, §5, §6, §7

[14] = test system: MCF-7 (human breast cancer cells); assay: MTT cancer cell growth inhibition; assay type: cell-based; details: Homo sapiens, MCF7, 72 h, 72 hours incubation, read-out: GI50 MCF
Source text: as §1, §2, §3, §4, §5, §6, §7

[15] = test system: MDA-MB-231 (breast cancer cells); assay: MTT cancer cell growth inhibition; assay type: cell-based; details: Homo sapiens, MDA-MB-231, 72 h, read-out: GI50 MDA-MB-231, MTT, 72 hours incubation, MDA-MB-231 cells
Source text: as §1, §2, §3, §4, §5, §6, §7

[16] = test system: MOLT-4 (human acute lymphoblastic leukemia cells); assay: MTT cancer cell growth inhibition; assay type: cell-based; details: Homo sapiens, MOLT-4, 72 h, MTT, 72 hours incubation; read-out: GI50 Mol
Source text: as §1, §2, §3, §4, §5, §6, §7

[17] = test system: N-87 (human gastric cancer cells); assay: MTT cancer cell growth inhibition; assay type: cell-based; details: Homo sapiens, 72 h, MTT, 72 hours incubation, N-87 cells; read-out: GI50 N-87
Source text: as §1, §2, §3, §4, §5, §6, §7

[18] = test system: PANC-1 (Pac-1, human pancreatic cancer cells); assay: MTT cancer cell growth inhibition; assay type: cell-based; details: Homo sapiens, PANC-1, 72 h, MTT, 72 hours incubation; read-out: GI50 PAN
Source text: as §1, §2, §3, §4, §5, §6, §7

[19] = test system: SGC-7901 (human gastric cancer cells); assay: MTT cancer cell growth inhibition; assay type: cell-based; details: Homo sapiens, SGC-7901, 72 h, MTT, 72 hours incubation, SGC-7901 cells; read-out: GI50 SGC-7901
Source text: as §1, §2, §3, §4, §5, §6, §7

[20] = test system: U937 (human leukemia cells); assay: MTT cancer cell growth inhibition; assay type: cell-based; details: Homo sapiens, U-937, 72 h, MTT, 72 hours incubation; read-out: GI50 U93
Source text: as §1, §2, §3, §4, §5, §6, §7

[21] = test system: lncap (prostate cancer cells); assay: MTT cancer cell growth inhibition; assay type: cell-based; details: Homo sapiens, LNCaP, 72 h, MTT, 72 hours incubation; read-out: GI50 lnca
Source text: as §1, §2, §3, §4, §5, §6, §7

Structure (SMILES) | IC50 HDAC7 [1] | GI50 [2] [nM] | GI50 [3] [nM] | GI50 [4] [nM] | GI50 [5] [nM] | GI50 [6] [nM] | GI50 [7] [nM] | GI50 [8] [nM] | GI50 [9] [nM] | GI50 [10] [nM] | GI50 [11] [nM] | GI50 [12] [nM] | GI50 [13] [nM] | GI50 [14] [nM] | GI50 [15] [nM] | GI50 [16] [nM] | GI50 [17] [nM] | GI50 [18] [nM] | GI50 [19] [nM] | GI50 [20] [nM] | other results
C/C=C1\NC(=O)c2nc(ccc2F)CNC(=O)C[C@@H](/C=C/CCS)OC(=O)[C@H](C(C)C)NC1=O [Compound 106] | no activity | 60 | 20 | 66 | 30 | 68 | 43 | 30 | 50 | 31 | 27 | 56 | 76 | 30 | 19 | 30 | 12 | 30 | 35 | 20 | GI50 [21]: 30 nM
C/C=C1\NC(=O)c2cc(F)cc(n2)CNC(=O)C[C@@H](/C=C/CCS)OC(=O)[C@H](C(C)C)NC1=O [Compound 107] | no activity | 40 | 30 | 53 | 30 | 57 | 13 | 80 | 60 | 24 | 38 | 72 | 41 | 30 | 27 | 30 | 35 | 80 | 27 | 30 | GI50 [21]: 30 nM
C/C=C1\NC(=O)c2ccc(F)c(n2)CNC(=O)C[C@@H](/C=C/CCS)OC(=O)[C@H](C(C)C)NC1=O [Compound 108] | no activity | 40 | 20 | 76 | 20 | 33 | 93 | 80 | 70 | 43 | 59 | 11 | 24 | 30 | 49 | 20 | 34 | 80 | 36 | 30 | GI50 [21]: 20 nM
C/C=C1\NC(=O)c2nc(ccc2F)CNC(=O)C[C@@H](/C=C/CCS)OC(=O)[C@H](CC)NC1=O [Compound 109] | no activity | 50 | 20 | 56 | 40 | 31 | 51 | 70 | 70 | 46 | 28 | 82 | 71 | 20 | 126 | 30 | 61 | 70 | 42 | 40 | GI50 [21]: 30 nM
C/C=C1\NC(=O)c2ccc(F)c(n2)CNC(=O)C[C@@H](/C=C/CCS)OC(=O)[C@H](CC)NC1=O [Compound 111] | no activity | 50 | 30 | 36 | 60 | 27 | 57 | 80 | 80 | 38 | 37 | 53 | 35 | 20 | 38 | 20 | 28 | 80 | 73 | 50 | GI50 [21]: 20 nM
C/C=C1\NC(=O)c2nc(ccc2F)CNC(=O)C[C@@H](/C=C/CCS)OC(=O)[C@H](C)NC1=O [Compound 112] | no activity | 60 | 80 | 23 | 60 | 16 | 73 | 90 | 70 | 35 | 55 | 21 | 31 | 60 | 58 | 90 | 73 | 80 | 41 | 60 | GI50 [21]: 70 nM
C/C=C1\NC(=O)c2cc(F)cc(n2)CNC(=O)C[C@@H](/C=C/CCS)OC(=O)[C@H](C)NC1=O [Compound 113] | no activity | 60 | 70 | 34 | 50 | 24 | 48 | 100 | 80 | 21 | 47 | 36 | 51 | 50 | 31 | 100 | 42 | 70 | 95 | 60 | GI50 [21]: 80 nM
